Data reported in patent US20130289071A1, “TETRAZOLYL-TETRAHYDROPYRIDINE COMPOUNDS FOR INFLAMMATION AND IMMUNE-RELATED USES” (Synta Pharmaceuticals Corp., priority 2010, published 2013).

How the values were obtained:
IL-2 production = test: Inhibition of IL-2 production (Jurkat/PHA/1% FBS, ELISA); type: cell-based; conditions: Jurkat cells, PHA 2.5 μg/mL
Protocol: JurkaT-cells were placed in a 96 well plate (0.5 million cells per well in 1% FBS medium), and then a test compound of this invention was added at different concentrations. After 10 minutes, the cells were activated with PHA (final concentration 2.5 μg/mL) and incubated for 20 hours at 37° C. under 5% CO2. The final volume was 200 μL. Following incubation, the cells were centrifuged, and the supernatants collected and stored at −70° C. prior to assaying for IL-2 production. A commercial ELISA kit (IL-2 Eli-pair, Diaclone Research, Besancon, France) was used to detect production of IL-2, from which dose response curves were obtained. The IC50 value was calculated as the concentration at which 50% of maximum IL-2 production after stimulation was inhibited versus a non-stimulation control.

[1] = target: T1, CRAC ion channels (ICRAC current), RBL-2H3 cells (Rattus norvegicus, UniProt Q5M848); test: Automated patch clamp (Qpatch) inhibition of ICRAC current in RBL-2H3 cells; type: cell-based; conditions: 100 nM compound, % ICRAC inhibition
T1 construct: endogenous in cells; host or cells: RBL-2H3 (rat basophilic leukemia) cells
Protocol: Automated patch clamp experiments are conducted with the QPatch 16 (Sophion Bioscience, Ballerup, Denmark) at room temperature (21-25° C.). Immediately following the establishment of giga-seal whole-cell configuration, the cells membrane potential is clamped at 0 mV. Voltage ramps of 50 ms duration spanning the voltage range of −100 to +100 mV are then stimulated at a rate of 0.33 Hz. Currents are filtered at 2.9 kHz and digitized at 200 μs intervals. Capacitive currents and series resistance are determined and corrected before each voltage ramp using the automatic capacitance compensation.
RBL-2H3 are grown in DMEM media supplemented with 10% fetal bovine serum, penicillin 100 U/ml and streptomycin […] in an atmosphere of 95% air/5% CO2. Cells are grown to confluence in 175 cm^2 tissue culture flask. On the experimental day, cells harvested with 0.25% trypsin/0.02% EDTA and resuspended in extracellular solution at density of 5×10^6 cells/ml.
The intracellular solution contains Cs-Glutamate 90 mM; NaCl 8 mM; MgCl2 3 mM; CsCl 20 mM; CsBAPTA 20 mM; HEPES 10 mM; InsP3 0.02 mM; pH=7.2 adjusted with CsOH.
The extracellular solution contains NMDGCl 120 mM; KCl 5.4 mM; CsCl 10 mM; CaCl2 10 mM; MgCl2 1 mM; HEPES 10 mM; Glucose 5.5 mM; at pH=7.4 adjusted with HCl.
ICRAC currents are measured using 50 msec voltage ramps between −100 mV to +100 mV. The voltage ramps are stimulated every 3 seconds for at least 570 seconds. The maximum ICRAC current is allowed to develop for at least 135 seconds. Compounds diluted in extracellular solutions are then applied twice, 30 seconds apart. After incubating the cells with compound for 435 seconds, a reference solution is applied at the end of the experiment. The reference solution is a Ca^2+ free extracellular solution.
Off-line analysis with the Qpatch software is used to plot the current value at −80 mV for each ramp trace against time. The resulting current versus time data is then exported into a Microsoft Excel spreadsheet. The ICRAC membrane currents are separated from the cells basal background currents by either subtracting out the average membrane current values during the first 1-3 traces, or the average membrane current values obtained with the reference solution at the end of the experiment. The % ICRAC inhibition in each cell is calculated by comparing the amount of current just prior to the first compound addition to the amount of current after the cells has been perfused with the compound for at least 400 seconds.

T1 sequence (Q5M848 whole entry): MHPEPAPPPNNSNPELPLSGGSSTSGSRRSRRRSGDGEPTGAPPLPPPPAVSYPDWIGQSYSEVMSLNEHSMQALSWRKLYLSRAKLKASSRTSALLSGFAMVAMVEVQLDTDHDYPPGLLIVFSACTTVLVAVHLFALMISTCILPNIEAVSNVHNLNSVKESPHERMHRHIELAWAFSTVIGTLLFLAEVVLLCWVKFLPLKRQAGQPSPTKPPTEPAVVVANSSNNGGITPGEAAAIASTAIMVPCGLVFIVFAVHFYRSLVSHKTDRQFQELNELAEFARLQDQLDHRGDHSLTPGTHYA

Compound	IC50 (IL-2 production; Homo sapiens, Jurkat, 20 h) [µM]	further results
CC1=C(c2ccc(NC(=O)c3ccccc3Cl)nc2)CN(c2nnn(C)n2)CC1 [Compound 51]	0.075	–
CC1=C(c2ccc(NC(=O)c3cnccc3C)cc2)CN(c2nnn(C)n2)CC1 [Compound 47]	0.062	inhibition at 0.1 µM [1]: 70%
CC1=C(c2cnc(C(=O)Nc3c(F)cccc3F)cn2)CN(c2nnn(C)n2)CC1 [Compound 50]	0.074	–
CC1=C(c2cnc(NC(=O)c3cc(F)cc(F)c3)cn2)CN(c2nnn(C)n2)CC1 [Compound 75]	0.803	–
CCn1nnc(N2CCC(C)=C(c3ccc(NC(=O)c4cccc(F)c4F)cc3)C2)n1 [Compound 34]	0.047	–
[2H]C([2H])([2H])n1nnc(N2CCC(C)=C(c3ccc(NC(=O)c4cccc(F)c4F)cc3)C2)n1 [Compound 1]	0.01	–
CCCn1nnc(N2CCC(C)=C(c3ccc(NC(=O)c4cccc(F)c4F)cc3)C2)n1 [Compound 52]	0.077	–
Cn1nnc(N2CCC(Cl)=C(c3ccc(NC(=O)c4ccncc4Cl)cc3)C2)n1 [Compound 43]	0.056	–
CC1=C(c2ccc(C(=O)Nc3c(F)cccc3F)cn2)CN(c2nnn(C)n2)CC1 [Compound 65]	0.127	–
Cc1ccncc1C(=O)Nc1ccc(C2=C(Cl)CCN(c3nnn(C)n3)C2)cn1 [Compound 67]	0.15	–
CCC1=C(c2ccc(NC(=O)c3cnccc3C)cc2)CN(c2nnn(C)n2)CC1 [Compound 22]	0.029	inhibition at 0.1 µM [1]: 43%
CC(C)C1=C(c2cnc(NC(=O)c3c(F)cccc3F)cn2)CN(c2nnn(C)n2)CC1 [Compound 35]	0.049	–
CCC1=C(c2ccc(NC(=O)c3cccc(F)c3F)cc2)CN(c2nnn(C)n2)CC1 [Compound 7]	0.014	–
CC1=C(c2ccc(NC(=O)c3c(F)cccc3F)nc2)CN(c2nnn(C)n2)CC1 [Compound 8]	0.015	–
CC1=C(c2cnc(NC(=O)c3ccncc3Cl)cn2)CN(c2nnn(C)n2)CC1 [Compound 73]	0.423	–
CC1=C(c2cnc(NC(=O)c3ccc(F)cc3F)cn2)CN(c2nnn(C)n2)CC1 [Compound 58]	0.104	–
Cn1nnc(N2CCC(Cl)=C(c3ccc(NC(=O)c4c(F)cccc4F)cc3)C2)n1 [Compound 18]	–	inhibition at 0.1 µM [1]: 74%
CC1=C(c2ccc(NC(=O)c3cc(F)ccc3C)nc2)CN(c2nnn(C)n2)CC1 [Compound 29]	–	inhibition at 0.1 µM [1]: 85%
CCc1c(F)cncc1C(=O)Nc1ccc(C2=C(C)CCN(c3nnn(CC)n3)C2)cc1 [Compound 59]	0.105	–
CCn1nnc(N2CCC(C)=C(c3ccc(NC(=O)c4cnccc4C)cc3)C2)n1 [Compound 55]	0.096	–
CC1=C(c2ccc(NC(=O)c3cnc(C)cc3C)cc2)CN(c2nnn(C)n2)CC1 [Compound 69]	0.219	–
CC1=C(c2ccc(NC(=O)c3cncc(F)c3C)cc2)CN(c2nnn(C)n2)CC1 [Compound 6]	0.013	–
CC1=C(c2cnc(NC(=O)c3cncc(F)c3C)cn2)CN(c2nnn(C)n2)CC1 [Compound 66]	0.147	–
CCC1=C(c2ccc(NC(=O)c3cccc(F)c3F)cc2)CN(c2nnn(CC)n2)CC1 [Compound 24]	0.033	–
CC1=C(c2ccc(NC(=O)c3cccc(F)c3F)cc2)CN(c2nnn(C(F)F)n2)CC1 [Compound 21]	0.026	–
CCC1=C(c2ccc(NC(=O)c3cccc(F)c3F)cc2)CN(c2nnn(CF)n2)CC1 [Compound 3]	0.012	–
CC1=C(c2ccc(NC(=O)c3ccncc3Cl)cc2)CN(c2nnn(C)n2)CC1 [Compound 15]	–	inhibition at 0.1 µM [1]: 53%
COc1cccc(F)c1C(=O)Nc1ccc(C2=C(C)CCN(c3nnn(C)n3)C2)cc1 [Compound 68]	0.163	–

Compound	IC50 (IL-2 production; Homo sapiens, Jurkat, 20 h) [µM]	further results
CC1=C(c2cnc(NC(=O)c3c(F)cccc3F)cn2)CN(c2nnn(C)n2)CC1 [Compound 32]	0.046	–
CC1=C(c2ccc(NC(=O)c3cccc(F)c3F)cc2)CN(c2nnn(CC(C)C)n2)CC1 [Compound 71]	0.312	–
CC1=C(c2cnc(NC(=O)c3c(F)cccc3Cl)cn2)CN(c2nnn(C)n2)CC1 [Compound 5]	0.013	–
CC1=C(c2ccc(NC(=O)c3cccc(F)c3Cl)cc2)CN(c2nnn(C)n2)CC1 [Compound 16]	–	inhibition at 0.1 µM [1]: 69%
CCn1nnc(N2CCC(C)=C(c3ccc(NC(=O)c4cncnc4C)cc3)C2)n1 [Compound 74]	0.698	–
CC1=C(c2ccc(NC(=O)c3cccc(Cl)c3Cl)cc2)CN(c2nnn(C)n2)CC1 [Compound 62]	0.124	–
CC1=C(c2ccc(NC(=O)c3cccc(F)c3F)cc2)CN(c2nnn(C)n2)CC1 [Compound 19]	–	IC50 (IL-2 production; 20 hours): 0.022 µM
CC1=C(c2ccc(NC(=O)c3c(Cl)cncc3Cl)cc2)CN(c2nnn(C)n2)CC1 [Compound 57]	0.1	–
CC1=C(c2ccc(NC(=O)c3c(C)cccc3Cl)cc2)CN(c2nnn(C)n2)CC1 [Compound 31]	–	inhibition at 0.1 µM [1]: 72%
CC1=C(c2cnc(NC(=O)c3cnccc3C)cn2)CN(c2nnn(C)n2)CC1 [Compound 72]	0.335	–
CC1=C(c2ccc(NC(=O)c3ccccc3F)nc2)CN(c2nnn(C)n2)CC1 [Compound 42]	0.055	–
CC1=C(c2ccc(NC(=O)c3ncncc3C)cc2)CN(c2nnn(C)n2)CC1 [Compound 63]	0.124	–
Cn1nnc(N2CCC(Cl)=C(c3cnc(NC(=O)c4cc(F)ccc4Cl)cn3)C2)n1 [Compound 36]	–	inhibition at 0.1 µM [1]: 88%
CC1=C(c2ccc(NC(=O)c3c(F)cccc3F)cc2)CN(c2nnn(C(C)C)n2)CC1 [Compound 44]	0.056	–
Cn1nnc(N2CCC(Cl)=C(c3ccc(NC(=O)c4ccncc4F)cc3)C2)n1 [Compound 28]	0.039	–
CCn1nnc(N2CCC(C)=C(c3cnc(NC(=O)c4c(F)cccc4Cl)cn3)C2)n1 [Compound 23]	–	inhibition at 0.1 µM [1]: 81%
CCC1=C(c2cnc(NC(=O)c3ccc(F)cc3F)cn2)CN(c2nnn(C)n2)CC1 [Compound 49]	0.067	–
CC1=C(c2ccc(NC(=O)c3cccc(F)c3C)nc2)CN(c2nnn(C)n2)CC1 [Compound 20]	–	inhibition at 0.1 µM [1]: 65%
CCn1nnc(N2CCC(C)=C(c3ccc(NC(=O)c4cc(C)ncc4C)cc3)C2)n1 [Compound 70]	0.289	–
CC(C)C1=C(c2ccc(NC(=O)c3ccc(F)cc3F)nc2)CN(c2nnn(C)n2)CC1 [Compound 64]	0.126	–
CC1=C(c2ccc(NC(=O)c3cc(F)ccc3Cl)cc2)CN(c2nnn(C)n2)CC1 [Compound 53]	0.085	–
COc1ccc(F)cc1C(=O)Nc1ccc(C2=C(C)CCN(c3nnn(C)n3)C2)cc1 [Compound 76]	1	–
CC1=C(c2ccc(NC(=O)c3cccnc3C)cc2)CN(c2nnn(C)n2)CC1 [Compound 60]	0.114	–
CC1=C(c2ccc(NC(=O)c3c(F)cccc3Cl)nc2)CN(c2nnn(C)n2)CC1 [Compound 13]	0.017	–
Cn1nnc(N2CCC(Cl)=C(c3ccc(NC(=O)c4c(F)cccc4F)nc3)C2)n1 [Compound 4]	0.012	–
CC1=C(c2ccc(NC(=O)c3cccc(F)c3F)cc2)CN(c2nnn(CF)n2)CC1 [Compound 2]	0.011	–
COc1cc(C)c(C(=O)Nc2ccc(C3=C(C)CCN(c4nnn(C)n4)C3)cc2)cn1 [Compound 48]	0.062	–
